# Patent publication US11033524B2, “Methods and compositions for treating disorders associated with cortico-hippocampal hyperactivity” (RAMOT AT TEL-AVIV UNIVERSITY LTD., priority 2016, dated 2021)
# “Also recorded” adds a separate entry of the source.
# Key:
# AD mouse models = AD mouse models (Sanchez et al., 2012); cited from earlier work
# hippocampus = details: low-dose, MCI patients (Bakker et al., 2012); cited from earlier work
# hippocampal cultures [1] = assay: firing rate homeostasis: baclofen perturbation in MEA cultures; format: cell-based
# Procedure: The stable reduction in MFR induced by teriflunomide could have been the result of either impairment of homeostatic compensation mechanisms, or a change in a firing set-point value. A perturbation of firing rate in vivo results in re-normalization to its set-point level 2 days following perturbation through homeostatic mechanisms (Hengen et al., 2013). […] In order to determine the role DHODH inhibition in homeostatic process, we added 10 μM baclofen following 12 hr incubation with teriflunomide (FIG. 7).
# hippocampal cultures [2] = details: returns to baseline level after 2 days (Slomowitz et al., 2015); cited from earlier work
# [3] = system: pilocarpine-induced seizures; assay: pilocarpine model of TLE, behavioral seizure duration; format: in vivo; details: 15 mg/kg IP daily for 3 days, pilocarpine 330 mg/kg IP, C57 male mice, p=0.0157
# Source text: In order to determine the potential therapeutic benefit of DHODH inhibition for epilepsy treatment, we used the pilocarpine model of TLE, which is one of the most common mouse models that recapitulates many aspects of the human pathology. The pilocarpine model of TLE appears to be highly isomorphic with the human disease including induction of acute status epilepticus, and latent period followed by the appearance of spontaneous recurrent seizures, as well as the occurrence of widespread lesions in the CNS (Curia et al., 2008). These features make it highly suitable for testing the efficacy of antiepileptic drugs (Leite et al., 2002). We performed intraperitoneal (IP) daily injections of teriflunomide (15 mg/kg) or vehicle for 3 days, in 6-week-old male mice of C57 background. On the third day, mice were injected subcutaneously (SC) with 2 mg/kg scopolamine to prevent peripheral effects, and 30 min later with 330 mg/kg pilocarpine IP. […] Because seizure duration correlates with hippocampal pathology in the pilocarpine model (Mazzuferi et al., 2012), these in vivo results emphasize the potential of DHODH inhibition as a therapeutic approach in the most common form of epilepsy.
# hippocampal neurons [4] = assay: inhibition-excitation (I/E) ratio from sEPSCs and sIPSCs (integrated conductances GE, GI); format: cell-based
# Source text: The inhibition-excitation (I/E) ratio constitutes an important factor in firing rate homeostasis, and in pathology of epilepsy. To assess the effects of DHODH inhibition on the I/E ratio, the spontaneous excitatory and inhibitory postsynaptic currents (sEPSCs, sIPSCs, respectively) were isolated at the same cell based on the reversal potentials of α-amino-3-hydroxy-5-methyl-4-isoxazolepropionic acid receptor (AMPAR)-mediated excitatory and GABAAR-mediated inhibitory currents, and the integrated excitatory (FIG. 4A) and inhibitory conductance's (GE, GI, respectively) were calculated (FIGS. 4B-4D).
# [5] = system: CA3-CA1 synaptic transmission; assay: fEPSP recording in acute hippocampal slices
# Source text: Having established an essential role of DHODH activity in regulating MFR and E/I balance in hippocampal cultures, we asked whether acute DHODH inhibition modulates basal synaptic transmission in a more intact preparation—acute hippocampal slices. We evoked electrical stimulation in CA3 axons, comprising the Schaffer Collateral (SC) pathway of the hippocampus, and recorded the extracellular field excitatory postsynaptic potentials (fEPSP) in the stratum radiatum. We estimated the effect of teriflunomide (50 μM) on basal CA3-CA1 synaptic transmission evoked by low frequency stimulation of 0.1 Hz.
# Next, we examined how DHODH inhibition affects short-term synaptic plasticity evoked by high-frequency spike bursts. This type of plasticity plays an important role in working memory function.
# [6] = system: CA3-CA1 hippocampal connections; assay: in vivo fEPSP recording after ICV injection; details: ICV 100 mM/1 μl daily for 3 days, bursts of 3 stimuli at 50 Hz, anesthetized mice
# Procedure: Finally, we used intracerebroventricular (ICV) injection of teriflunomide to test its effect on hippocampal synaptic plasticity in vivo. For this, we injected teriflunomide (100 mM/1 μl daily) for 3 consecutive days and then performed electrophysiological fEPSP recording in vivo in anesthetized (2% isoflurane) mice. The recording electrodes were placed in the CA1 stratum radiatum, while the stimulating electrode was paced at the Schaffer Collateral fibers. We examined how inhibition of DHODH in the brain affects short-term synaptic plasticity in the hippocampus evoked by high-frequency spike bursts.
# hippocampal neurons [7] = assay: mEPSC recording (excitatory quantal events); format: cell-based
# Procedure: In this experiment we tested whether DHODH inhibition affects excitatory quantal events, by recording mEPSCs from hippocampal neurons under control conditions and 2 days following teriflunomide application (FIG. 5). As found, chronic teriflunomide incubation triggered a significant decrease of ˜26% in mEPSC amplitude (FIGS. 5A-5B).
# hippocampal neurons [8] = assay: intrinsic excitability: action potentials evoked by somatic current injections (F-I curves); format: cell-based; details: teriflunomide incubation
# Procedure: Modulation of intrinsic excitability is an important facet of neuronal adaptation. In this experiment we elicited action potentials (APs) in response to increasing somatic current injections ranging from 0 to +500 pA (F-I curves) in the presence of postsynaptic receptor blockers (FIGS. 3A-3B). As found, teriflunomide induced a reduction in the maximal firing frequency from 31.4±2.29 Hz to 17.2±3.34 after 4 hr of incubation, and to 16.25±3.06 Hz after 2 days of incubation (FIGS. 3B-3C). Input resistance was not affected by teriflunomide application (FIGS. 3D-3E).
# [9] = system: cultured hippocampal neurons; assay: multi-electrode array (MEA) recording of spiking activity / mean firing rate; format: cell-based; details: for effect of teriflunomide on MFR in DHODH knockdown cultures: 50 μM teriflunomide in shDHODH-infected cultures
# Source text: In order to test how DHODH targeting affects neuronal activity, we examined the effect of the DHODH inhibitor teriflunomide on cultured hippocampal neurons grown on a multi-electrode chip (MEA) that allows a long-term monitoring of spiking activity from many neurons simultaneously (FIGS. 1A-1C).
# In order to test the specificity of teriflunomide effect on firing rate, we used a lentiviral-based shRNA delivery system (shDHODH; TRCN0000294665, Sigma Aldrich) to knockdown DHODH expression in hippocampal cultures.
# In order to test whether the change in MFR resulting from DHODH inhibition is induced by the reduction of available uridine (a precursor of pyrimidines) or results from a change in the mitochondrial function, we co-applied 100 μM uridine mono-phosphate with teriflunomide in MEA recordings.
compound,measurement,setting,value
CC[C@@H](C(N)=O)N1CCCC1=O [levetiracetam],brain hyperactivity,AD mouse models,reduces
same,cognitive impairments,AD mouse models,improves
same,memory,hippocampus,improvement
same,metabolic hyperactivity in the hippocampus,hippocampus,reduces
NCC(CC(=O)O)c1ccc(Cl)cc1 (stereo not drawn) [baclofen],MFR acutely after baclofen,hippocampal cultures [1]; 10 μM baclofen added in the presence of teriflunomide,0.3678±0.08 Hz
same,MFR stabilized over a 2-day period after baclofen,"hippocampal cultures [1]; 10 μM baclofen in the presence of teriflunomide, 48 h",2.00±0.35 Hz
same,firing rate after baclofen alone,hippocampal cultures [2],profound inhibition
"C/C(O)=C(\C#N)C(=O)Nc1ccc(C(F)(F)F)cc1 [teriflunomide, (2Z)-2-cyano-3-hydroxy-N-[4-(trifluoromethyl)phenyl]but-2-enamide]","MFR, new lower baseline value","hippocampal cultures [1]; 12 hr (overnight) incubation with 50 μM teriflunomide, original baseline 4.30±0.0.44 Hz",2.50±0.38 Hz
same,behavioral seizure duration,[3],significantly reduces
same,I/E ratio (GI/GE per neuron),hippocampal neurons [4]; 4 hr to 2 days of teriflunomide incubation,elevated and remained high; also recorded: significant and stable increase
same,average integrated excitatory conductance (GE),hippocampal neurons [4]; 2 days of teriflunomide incubation,remained lower for 2 days; also recorded: stable during 2 days of incubation
same,average integrated excitatory conductance (GE),hippocampal neurons [4]; after 4 hr of teriflunomide incubation,dramatic decrease
same,integrated inhibitory conductance (GI),hippocampal neurons [4]; after either 4 hr or 2 days of teriflunomide incubation,no significant change; also recorded: no significant reduction
same,fEPSP amplitude (basal CA3-CA1 transmission),"[5]; 50 μM teriflunomide, 0.1 Hz stimulation",gradual reduction
same,short-term synaptic facilitation (relative fEPSP amplitude within the burst),"[5]; bursts of 5 stimuli at 50 Hz, 30 min after teriflunomide",profoundly increased
same,short-term synaptic facilitation in vivo,[6],increase
same,decrease in mEPSC amplitude,hippocampal neurons [7]; 2 days teriflunomide incubation vs control,26%
same,mEPSC frequency,"hippocampal neurons [7]; 2 days teriflunomide incubation, p=0.08",not significantly affected; also recorded: did not reach statistical significance
same,input resistance (Rin),hippocampal neurons [8],no change; also recorded: not affected
same,effect of teriflunomide on MFR in DHODH knockdown cultures,[9],did not produce long-term changes in MFR
same,effect of teriflunomide on MFR in DHODH knockdown cultures,[9]; listed as Teriflunomide,did not have a significant effect
same,neuronal mean firing rate (MFR),"[9]; 50 μM teriflunomide, after 4 h of application, baseline 3.95±0.27 Hz",1.58±0.17 Hz
same,stability of the lower MFR induced by teriflunomide,"[9]; 50 μM teriflunomide, time following application",stable for 14 hr
same,reduction in MFR with co-applied uridine,"[9]; 100 μM uridine mono-phosphate co-applied with 50 μM teriflunomide, timescale of 2 days",does not occlude the reduction in maximum firing rate (MFR); also recorded: did not occlude the effect of teriflunomide on MFR; also recorded: did not occlude the reduction in MFR
